Results taken from PMC7226045, “Ensartinib (X-396) Effectively Modulates Pharmacokinetic Resistance Mediated by ABCB1 and ABCG2 Drug Efflux Transporters and CYP3A4 Biotransformation Enzyme” (Cancers, 2020).

Assays:
CYP2C8 = target: T1, CYP2C8 (Homo sapiens, UniProt P10632); experiment: Vivid CYP screening kit, recombinant CYP2C8; assay type: biochemical; conditions: recombinant enzyme, 15 min incubation, absolute IC50; read-out: CYP2C8 inhibition IC50
T1 construct: purchased Thermo Fisher Scientific; host or cells: insect microsomal fractions
Protocol: (§1) CYP inhibitory assay was performed as described previously. Experiments were performed with commercial Vivid CYP screening kits containing insect microsomal fractions enriched with a specific human CYP isoform, human CYP reductase, and in some cases, human cytochrome b5. The potential inhibitory activity of ensartinib toward CYP1A2, CYP2B6, CYP2C8, CYP2C9, CYP2C19, CYP2D6, CYP3A4, and CYP3A5 (i.e., all CYP isoforms that drug regulatory authorities recommend for testing of inhibition by new molecular entities) was then examined. Experiments were performed using a kinetic mode in black 96-well plates according to the manufacturer´s instructions. Briefly, 5-point serial dilutions of ensartinib or the model inhibitor recommended by the manufacturer in buffer were transferred into the wells, then a master mix consisting of a CYP isoenzyme with an NADPH regeneration system in buffer was added. After a 10 min pre-incubation, the reaction was initiated by adding a mixture of NADP^+ and the appropriate Vivid substrate, after which fluorescence was measured at 1 min intervals for 60 min using an Infinite M200 Pro microplate reader (Tecan, Männedorf, Switzerland). The enzyme concentration and incubation interval used for data evaluation (15 min) placed the systems within the linear regions of the appropriate reaction velocity curves. […]

CYP3A4 = CYP3A4 (Homo sapiens, UniProt P08684); experiment: Inhibition of CYP3A4 in intact HepG2-CYP3A4 cells (P450-Glo, luciferin-IPA); assay type: cell-based; design: expressed in transfected cells; host or cells: HepG2-CYP3A4; conditions: luciferin-IPA 2 µM, 45 min, normalized to viability, read-out: IC50, inhibition of CYP3A4 in enzyme-overexpressing HepG2 cells
Protocol: A cell-based method using the P450-Glo CYP3A4 Assay and Screening System with Luciferin-IPA together with the CellTiter-Glo Luminescent Cell Viability Assay was used to measure CYP3A4 inhibition in intact HepG2-CYP3A4 cells [27]. HepG2-CYP3A4 cells were seeded on a transparent 96-well plate at a density of 8.0 × 10^4 cells/well and cultured for 24 h. […] After a 10 min pre-incubation under standard conditions, the CYP3A4 substrate luciferin-IPA was quickly added to all cells other than background samples at a final concentration of 2 µM and the plates were then incubated for 45 min at room temperature. After incubation, the plates were placed on ice and some of the culture media from the cells was transferred to an opaque white 96-well plate and mixed with Luciferin Detection Reagent in a ratio of 1:1 (v/v). The resulting solution was incubated for 20 min at room temperature, then the samples’ luminescence was measured using a microplate reader (Infinite M200 Pro, Tecan, Männedorf, Switzerland) with an integration time of 250 ms. The remaining media was separated from the cells, then 35 µL of pure Opti-MEM was added and the resulting mixture was incubated for 30 min at room temperature. […] Luminescence (which correlates with cell viability) was monitored under conditions identical to those used in the previous step.

ABCG2 = target: T2, ABCG2 (Homo sapiens, UniProt Q9UNQ0); experiment: mitoxantrone accumulation assay (flow cytometry) in MDCKII-ABCG2 cells; assay type: cell-based; conditions: 1 µM mitoxantrone, 1 h, read-out: IC50, inhibition of ABCG2 (mitoxantrone accumulation)
T2 construct: expressed in transfected cells; host or cells: MDCKII-ABCG2 (from Dr. Alfred Schinkel, The Netherlands Cancer Institute)
T2 sequence (Q9UNQ0 1-655): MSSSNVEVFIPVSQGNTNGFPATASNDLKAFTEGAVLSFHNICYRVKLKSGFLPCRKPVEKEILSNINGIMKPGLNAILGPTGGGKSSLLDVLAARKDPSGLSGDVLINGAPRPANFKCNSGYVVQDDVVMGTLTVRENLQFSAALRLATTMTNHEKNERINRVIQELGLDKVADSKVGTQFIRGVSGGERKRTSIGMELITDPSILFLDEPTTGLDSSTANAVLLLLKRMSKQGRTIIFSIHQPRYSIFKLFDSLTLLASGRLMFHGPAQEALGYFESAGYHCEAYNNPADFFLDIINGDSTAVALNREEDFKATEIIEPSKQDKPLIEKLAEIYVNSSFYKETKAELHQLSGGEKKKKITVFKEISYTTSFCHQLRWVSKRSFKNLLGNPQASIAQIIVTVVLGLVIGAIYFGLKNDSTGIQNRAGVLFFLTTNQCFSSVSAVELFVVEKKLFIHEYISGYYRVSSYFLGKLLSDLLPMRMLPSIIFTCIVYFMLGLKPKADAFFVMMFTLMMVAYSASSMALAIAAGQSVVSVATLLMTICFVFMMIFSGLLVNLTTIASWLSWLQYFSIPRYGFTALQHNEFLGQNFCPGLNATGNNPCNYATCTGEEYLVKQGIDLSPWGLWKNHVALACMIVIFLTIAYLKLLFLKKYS
Protocol: The flow-cytometric inhibitory assay with daunorubicin and mitoxantrone was performed with minor modifications as described previously. MDCKII-par, MDCKII-ABCB1, MDCKII-ABCG2, and MDCKII-ABCC1 cell lines were seeded at densities of 22.0 × 10^4, 15.0 × 10^4, 25.0 × 10^4, and 22.0 × 10^4 cells/well, respectively, on a 12-well plate and then incubated for 24 h to reach approximately 70–80% confluence. Further steps including cell washing, the preparation of drug/model inhibitor dilutions, and their addition to cells were performed as described above. After the 10 min pre-incubation period, 2 µM daunorubicin (a substrate of ABCB1/ABCC1) or 1 µM mitoxantrone (ABCG2 substrate) were promptly added to all wells other than those containing background samples, then the plate was incubated for 1 h under standard conditions. The plates were subsequently placed on ice, the cells were washed twice with ice-cold 1× PBS, and 10× trypsin without phenol red was added. After complete trypsinization, the cells were vigorously resuspended in ice-cold 1× PBS containing 2% FBS. Samples were then transferred into test-tubes and kept on ice until their fluorescence could be measured using a flow cytometer (BD FACSCanto II, Allschwil, Switzerland). The excitation/emission wavelengths for daunorubicin and mitoxantrone were 490/565 and 640/670 nm, respectively.

[1] = MTT proliferation / drug combination assay, MDCKII-ABCG2; assay type: cell-based, canine; conditions: dog, MDCKII-ABCG2 cells, 48 h, MTT, read-out: IC50, sensitivity to ensartinib
Protocol: (§2) MTT proliferation assay was performed as described previously.

MDCKII-ABCG2 cells = experiment: as above; assay type: cell-based, canine
Protocol: as §2

CYP2C9 = target: T3, CYP2C9 (Homo sapiens, UniProt P11712); experiment: Vivid CYP screening kit, recombinant CYP2C9; assay type: biochemical; conditions: recombinant enzyme, 15 min incubation, absolute IC50; read-out: CYP2C9 inhibition IC50
T3 construct: purchased Thermo Fisher Scientific; host or cells: insect microsomal fractions
Protocol: as §1

T1 sequence (P10632 whole entry): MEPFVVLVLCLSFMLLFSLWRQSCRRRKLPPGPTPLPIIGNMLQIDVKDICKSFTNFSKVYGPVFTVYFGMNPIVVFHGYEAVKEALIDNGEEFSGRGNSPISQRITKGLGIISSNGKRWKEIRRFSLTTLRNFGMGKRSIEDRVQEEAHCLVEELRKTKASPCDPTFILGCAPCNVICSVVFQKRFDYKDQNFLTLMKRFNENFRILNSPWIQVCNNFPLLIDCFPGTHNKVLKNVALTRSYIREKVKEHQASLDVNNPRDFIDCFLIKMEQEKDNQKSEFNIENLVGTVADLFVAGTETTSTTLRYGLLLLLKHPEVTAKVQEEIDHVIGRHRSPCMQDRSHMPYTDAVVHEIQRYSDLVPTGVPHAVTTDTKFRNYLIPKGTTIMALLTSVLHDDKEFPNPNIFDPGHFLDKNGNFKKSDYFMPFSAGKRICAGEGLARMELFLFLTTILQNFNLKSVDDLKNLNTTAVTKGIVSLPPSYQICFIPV
Sequence of CYP3A4 (P08684 whole entry): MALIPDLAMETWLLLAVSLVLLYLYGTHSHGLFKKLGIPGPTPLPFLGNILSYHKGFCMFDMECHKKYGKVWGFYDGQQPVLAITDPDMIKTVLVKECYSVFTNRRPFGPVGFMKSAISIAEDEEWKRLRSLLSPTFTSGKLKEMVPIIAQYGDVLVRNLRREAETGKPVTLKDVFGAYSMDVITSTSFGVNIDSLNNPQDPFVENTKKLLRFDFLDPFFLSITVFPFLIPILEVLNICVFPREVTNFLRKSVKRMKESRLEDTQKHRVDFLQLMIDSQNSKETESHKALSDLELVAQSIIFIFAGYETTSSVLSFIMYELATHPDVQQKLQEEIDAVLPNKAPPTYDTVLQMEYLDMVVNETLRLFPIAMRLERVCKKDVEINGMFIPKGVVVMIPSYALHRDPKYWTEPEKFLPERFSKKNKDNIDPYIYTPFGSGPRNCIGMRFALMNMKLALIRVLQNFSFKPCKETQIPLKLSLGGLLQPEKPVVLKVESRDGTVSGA
T3 sequence (P11712 whole entry): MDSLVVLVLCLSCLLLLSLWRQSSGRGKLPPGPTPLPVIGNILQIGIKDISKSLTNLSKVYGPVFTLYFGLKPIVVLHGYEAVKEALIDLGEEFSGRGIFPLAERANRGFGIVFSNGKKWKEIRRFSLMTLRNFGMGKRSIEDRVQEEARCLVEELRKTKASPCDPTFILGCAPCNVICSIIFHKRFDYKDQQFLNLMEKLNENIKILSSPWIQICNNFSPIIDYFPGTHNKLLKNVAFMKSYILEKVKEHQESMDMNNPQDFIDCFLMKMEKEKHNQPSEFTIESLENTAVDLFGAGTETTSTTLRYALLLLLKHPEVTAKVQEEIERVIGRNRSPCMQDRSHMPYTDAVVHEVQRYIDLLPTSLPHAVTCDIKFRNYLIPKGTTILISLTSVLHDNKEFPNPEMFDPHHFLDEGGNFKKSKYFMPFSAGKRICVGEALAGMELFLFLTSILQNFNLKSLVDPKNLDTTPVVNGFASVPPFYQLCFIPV

C[C@@H]1CN(C(=O)c2ccc(NC(=O)c3cc(O[C@H](C)c4c(Cl)ccc(F)c4Cl)c(N)nn3)cc2)C[C@H](C)N1 [ensartinib, Ensartinib]
IC50 (CYP2C8): 20.6 µM | IC50 (CYP3A4): 23.5 µM | IC50 (ABCG2): 28.3 µM | IC50 at 48 h [1]: 23.3 µM | combination effect (Chou-Talalay combination index) (MDCKII-ABCG2 cells; 10 µM ensartinib with mitoxantrone): synergistic (synergistic (CI < 0.9)) | RR (reversal ratio) (MDCKII-ABCG2 cells; mitoxantrone, IC50 single drug / IC50 combined with 10 µM ensartinib): 6.16 | IC50 (CYP2C9): 4.93 µM
